From patent US20260285850A1, “SUBSTITUTED OXAZOLIDINONES AND IMIDAZOLINONES AS HERBICIDES” (FMC CORPORATION, priority 2023, published 2026)

What was measured:
Type in all cases: in vivo
[1] = tested on: green foxtail (Setaria viridis); assay: Test A postemergence application, visual injury rating 0-100; conditions: 10 days
Procedure, shortened: (§1)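 Scale 0–100 (no effect to complete control), visual, versus untreated controls, read 10 days after application. Application: preemergence directed spray onto seeded loam–sand soil, or postemergence to young plants; formulation in non-phytotoxic solvent with surfactant.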

[2] = tested on: ragweed (common ragweed, Ambrosia artemisiifolia); assay: as above; conditions: 10 days
Procedure, shortened: as §1

[3] = tested on: blackgrass (Alopecurus myosuroides); assay: as above; conditions: 10 days
Procedure, shortened: as §1

[4] = tested on: corn (Zea mays); assay: as above; conditions: 10 days
Procedure, shortened: as §1

[5] = tested on: wheat (Triticum aestivum); assay: as above; conditions: 10 days
Procedure, shortened: as §1

[6] = tested on: ryegrass, Italian (italian ryegrass, Lolium multiflorum); assay: as above; conditions: 10 days
Procedure, shortened: as §1

[7] = tested on: palmer (palmer amaranth, palmer pigweed, Amaranthus palmeri); assay: as above; conditions: 10 days
Procedure, shortened: as §1

[8] = tested on: galium (catchweed bedstraw, Galium aparine); assay: as above; conditions: 10 days
Procedure, shortened: as §1

[9] = tested on: barnyardgrass (Echinochloa crus-galli); assay: as above; conditions: 10 days
Procedure, shortened: as §1

[10] = tested on: kochia (Bassia scoparia); assay: as above; conditions: 10 days
Procedure, shortened: as §1

[11] = tested on: oat, wild (wild oat, Avena fatua); assay: as above; conditions: 10 days
Procedure, shortened: as §1

[12] = tested on: horseweed (Erigeron canadensis); assay: as above; conditions: Postemergence, 125 g ai/ha, 10 days; 0 is no effect, 100 is complete control
Procedure, shortened: as §1

[13] = tested on: soybean (Glycine max); assay: as above; conditions: 10 days
Procedure, shortened: as §1

[14] = tested on: green foxtail (Setaria viridis); assay: Test A preemergence soil spray, visual injury rating 0-100; conditions: 10 days, 0 = no effect, 100 = complete control
Procedure, shortened: as §1

[15] = tested on: ragweed (common ragweed, Ambrosia artemisiifolia); assay: as above; conditions: 10 days, 0 = no effect, 100 = complete control
Procedure, shortened: as §1

[16] = tested on: blackgrass (Alopecurus myosuroides); assay: as above; conditions: 10 days, 0 = no effect, 100 = complete control
Procedure, shortened: as §1

[17] = tested on: corn (Zea mays); assay: as above; conditions: 10 days, 0 = no effect, 100 = complete control
Procedure, shortened: as §1

[18] = tested on: wheat (Triticum aestivum); assay: as above; conditions: 10 days, 0 = no effect, 100 = complete control
Procedure, shortened: as §1

[19] = tested on: ryegrass, Italian (italian ryegrass, Lolium multiflorum); assay: as above; conditions: 10 days, 0 = no effect, 100 = complete control
Procedure, shortened: as §1

[20] = tested on: palmer (palmer amaranth, palmer pigweed, Amaranthus palmeri); assay: as above; conditions: 10 days, 0 = no effect, 100 = complete control
Procedure, shortened: as §1

[21] = tested on: barnyardgrass (Echinochloa crus-galli); assay: as above; conditions: 10 days, 0 = no effect, 100 = complete control
Procedure, shortened: as §1

[22] = tested on: kochia (Bassia scoparia); assay: as above; conditions: 10 days, 0 = no effect, 100 = complete control
Procedure, shortened: as §1

[23] = tested on: oat, wild (wild oat, Avena fatua); assay: as above; conditions: 10 days, 0 = no effect, 100 = complete control
Procedure, shortened: as §1

[24] = tested on: soybean (Glycine max); assay: as above; conditions: 10 days, 0 = no effect, 100 = complete control
Procedure, shortened: as §1

[25] = tested on: ducksalad (Heteranthera limosa); assay: Test B flooded paddy test, visual plant response rating 0-100; conditions: 250 g ai/ha, Flood, applied to paddy water, evaluated after 13 days
Procedure, shortened: (§2)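 In this flooded assay, 2-leaf seedlings received compound through the water layer, kept at 3 cm over the soil. Plants were held 13 days in a greenhouse and then visually compared with control pots.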

[26] = tested on: rice (Oryza sativa); assay: as above; conditions: 250 g ai/ha, Flood, applied to paddy water, evaluated after 13 days
Procedure, shortened: as §2

[27] = tested on: barnyardgrass (Echinochloa crusgalli); assay: as above; conditions: 250 g ai/ha, Flood, applied to paddy water, evaluated after 13 days
Procedure, shortened: as §2

[28] = tested on: sedge, umbrella (small-flower umbrella sedge, Cyperus difformis); assay: as above; conditions: 250 g ai/ha, Flood, applied to paddy water, evaluated after 13 days
Procedure, shortened: as §2

[29] = 31 g ai/ha, postemergence, 0 = no effect, 100 = complete control
[30] = Postemergence, 125 g ai/ha, 0 is no effect, 100 is complete control

SMILES: CC(C)OC(=O)C1CCC(NC(=O)C2(C)CN(c3cc(F)cc(Cl)c3)C(=O)O2)C1 (stereo not drawn) [Compound 2]
- Foxtail, Green plant response rating (0-100) [1, 29]: 0
- Foxtail, Green plant response rating (0 to 100 scale) [1, 30]: 90
- Ragweed plant response rating (0-100) [2, 29]: 20
- Ragweed plant response rating (0 to 100 scale) [2, 30]: 50
- Blackgrass plant response rating (0-100) [3, 29]: 60
- Blackgrass plant response rating (0 to 100 scale) [3, 30]: 70
- Corn plant response rating (0-100) [4, 29]: 40
- Corn plant response rating (0 to 100 scale) [4, 30]: 100
- Wheat plant response rating (0-100) [5, 29]: 80
- Wheat plant response rating (0 to 100 scale) [5, 30]: 90
- Ryegrass, Italian plant response rating (0-100) [6, 29]: 50
- Ryegrass, Italian plant response rating (0 to 100 scale) [6, 30]: 90
- Amaranth, Palmer plant response rating (0-100) [7, 29]: 0
- Amaranth, Palmer / Pigweed, Palmer plant response rating (0 to 100 scale) [7, 30]: 50
- Galium plant response rating (0-100) [8, 29]: 60
- Galium plant response rating (0 to 100 scale) [8, 30]: 90
- Barnyardgrass plant response rating (0-100) [9, 29]: 50
- Barnyardgrass plant response rating (0 to 100 scale) [9, 30]: 100
- Kochia plant response rating (0-100) [10, 29]: 0
- Kochia plant response rating (0 to 100 scale) [10, 30]: 80
- Oat, Wild plant response rating (0-100) [11, 29]: 70
- Oat, Wild plant response rating (0 to 100 scale) [11, 30]: 90
- Horseweed plant response rating (0 to 100 scale) [12]: 0
- Soybean plant response rating (0-100) [13, 29]: 20
- Soybean plant response rating (0 to 100 scale) [13, 30]: 70
- Foxtail, Green plant response rating (0-100) ([14]; 31 g ai/ha): 0
- Foxtail, Green plant response rating (0 to 100 scale) ([14]; 125 g ai/ha): 90
- Ragweed plant response rating (0-100) ([15]; 31 g ai/ha): 30
- Ragweed plant response rating (0 to 100 scale) ([15]; 125 g ai/ha): 0
- Blackgrass plant response rating (0-100) ([16]; 31 g ai/ha): 0
- Blackgrass plant response rating (0 to 100 scale) ([16]; 125 g ai/ha): 50
- Corn plant response rating (0-100) ([17]; 31 g ai/ha): 20
- Corn plant response rating (0 to 100 scale) ([17]; 125 g ai/ha): 70
- Wheat plant response rating (0-100) ([18]; 31 g ai/ha): 50
- Wheat plant response rating (0 to 100 scale) ([18]; 125 g ai/ha): 90
- Ryegrass, Italian plant response rating (0-100) ([19]; 31 g ai/ha): 20
- Ryegrass, Italian plant response rating (0 to 100 scale) ([19]; 125 g ai/ha): 80
- Amaranth, Palmer plant response rating (0-100) ([20]; 31 g ai/ha): 20
- Amaranth, Palmer plant response rating (0 to 100 scale) ([20]; 125 g ai/ha): 80
- Barnyardgrass plant response rating (0-100) ([21]; 31 g ai/ha): 10
- Barnyardgrass plant response rating (0 to 100 scale) ([21]; 125 g ai/ha): 90
- Kochia plant response rating (0-100) ([22]; 31 g ai/ha): 0
- Kochia plant response rating (0 to 100 scale) ([22]; 125 g ai/ha): 70
- Oat, Wild plant response rating (0-100) ([23]; 31 g ai/ha): 0
- Oat, Wild plant response rating (0 to 100 scale) ([23]; 125 g ai/ha): 70
- Soybean plant response rating (0-100) ([24]; 31 g ai/ha): 0
- Soybean plant response rating (0 to 100 scale) ([24]; 125 g ai/ha): 20
- Plant response rating, Ducksalad (0 to 100 scale, 0 is no effect and 100 is complete control) [25]: 65
- Plant response rating, Rice (0 to 100 scale, 0 is no effect and 100 is complete control) [26]: 20
- Plant response rating, Barnyardgrass (0 to 100 scale, 0 is no effect and 100 is complete control) [27]: 95
- Plant response rating, Sedge, Umbrella (0 to 100 scale, 0 is no effect and 100 is complete control) [28]: 75
